The values below come from publication PMC3983391 (Journal of medicinal chemistry, 2014).

The test system of series [1] is human tumor cell line (HTCL) panel (A549, KB, KBvin, DU145). Nature of the series: SRB antiproliferative activity, ranges over the HTCL panel. The format is cell-based. The following applies: read-out: GI50 range over HTCL panel.
Series [2] in a line: Toxicity in the nude mouse MCF7 xenograft study. The following applies: nude mice; for death: dead/total.
Series [3] deals with A549 cells. Nature of the series: Cell cycle analysis by propidium iodide flow cytometry. It counts as cell-based, human. The following applies: A549, 24 h; 5f 3 nM, colchicine 300 nM.
Series [4] has as its system A549 cells. Nature of the series: Immunocytochemistry of cellular microtubules. It counts as cell-based, human. The following applies: A549, 24 h; 5f 3 nM, paclitaxel 100 nM, colchicine 100 nM.
In series [5] the test system is tubulin (vinblastine site). Nature of the series: Competitive inhibition assay, BODIPY FL-vinblastine binding to tubulin. The following applies: tubulin 4 μM, BODIPY FL-vinblastine 2 μM; even at 30–100 μM. The arrangement: species or system dog.
A further series relates to MCF7 tumor xenografts. Nature of the series: Nude mouse MCF7 xenograft antitumor assay. It counts as in vivo. The following applies: 4 mg/kg i.v. every 3 days; p < 0.05 from day 10 onward.
The conditions of series [6]: data reported previously; cited from earlier work.

“Also recorded” adds a separate entry of the source.

A word on the GI50: it is the concentration at which growth is held to half of that of the control. As for `COc1ccc2c(c1)CCN2c1nc(C)nc2ccccc12` [5i, 4-(N-(5-Methoxy)indolinyl)-2-methylquinazoline], in series [1], the GI50 fell in the range of 170 to 320 nM.
Consider `COc1ccc2c(c1)CCCN2c1nc(Cl)nc2ccccc12` [1a, 2-chloro-4-(6-methoxy-3,4-dihydroquinolin-1(2H)-yl)quinazoline], for which the death in series [2] (4 mg/kg i.v., Q3D × 6) was 0/5.
For the compound `Cc1ccc2c(c1)CCCN2c1nc(Cl)nc2ccccc12` [4a, 2-Chloro-4-(N-(6-methyl-3,4-dihydroquinolinyl))quinazoline], the 50% growth inhibitory concentration (GI50) in series [1] fell in the range of 43 to 57 nM.
The same measure, in the same setting: to `COc1ccc2c(c1)CCCN(c1nc(C)nc3ccccc13)C2` [5m, 4-(N-(7-Methoxy-2,3,4,5-tetrahydro-1H-benzo[c]azepinyl))-2-methylquinazoline] belongs 5450 to 19600 nM; to `COc1ccc2c(c1)C(=O)CCN2c1nc(Cl)nc2ccccc12` [5a, 2-Chloro-4-(N-(6-methoxy-2,3-dihydro-4-oxoquinolinyl))-quinazoline], 27 to 33 nM; to `COc1ccc2c(c1)OCCN2c1nc(C)nc2ccccc12` [5e], 153 to 211 nM.
The same measure, in the same setting: under `COc1ccc2c(c1)C(=O)CCN2c1nc(C)nc2ccccc12` [5b, 4-(N-(6-Methoxy-2,3-dihydro-4-oxoquinolinyl))-2-methyl-quinazoline] stands 19 to 24 nM; under `COc1ccc2c(c1)CCN2c1nc(Cl)nc2ccccc12` [5h, 2-Chloro-4-(N-(5-methoxy)indolinyl)quinazoline], 170 to 320 nM.
Turning to `COc1ccc2c(c1)NC(=O)CN2c1nc(C)nc2ccccc12` [5f, 2-Methyl-4-(7-methoxy-2-oxo-3,4-dihydroquinoxalin-4(1H)-yl)quinazoline], the toxicity observation entry in series [2] (4 mg/kg i.v. every 3 days, 4 mg/kg) was “toxicity and death; also recorded: all seven mice died; also recorded: death of all treated mice”. Further, the death in series [2] (4 mg/kg i.v., Q3D × 6) is listed as 7/7. The “effect on the cell cycle” value in the series on A549 cells [3] is listed as “arrested at the G2/M phase”. Also, in the series with A549 cells [4], the “effect on cellular microtubule network” value was “microtubule network disappeared”. For the same compound, the GI50 in series [1] lay in the range of 1.9 to 3.2 nM. Also, the “effect on binding of BODIPY FL-vinblastine to tubulin” value in series [5] is reported as “did not significantly change; also recorded: did not compete”.
In the case of `COc1ccc2c(c1)C(O)CCN2c1nc(C)nc2ccccc12` (centres unmarked) [5c, 4-(N-(4-Hydroxy-6-methoxy-1,2,3,4-tetrahydroquinolinyl))-2-methylquinazoline], the GI50 in series [1] is 17 to 19 nM.
On the same count and under the same terms, under `Cc1nc(N2CCCc3cc(Br)ccc32)c2ccccc2n1` [4c, 4-(N-(6-Bromo-1,2,3,4-tetrahydroquinolinyl))-2-methylqui-nazoline] stands 169 to 211 nM; under `Cc1ccc2c(c1)CCCN2c1nc(C)nc2ccccc12` [4b, 2-Methyl-4-(N-(6-methyl-1,2,3,4-tetrahydroquinolinyl))-quinazoline], 169 to 211 nM; under `COc1ccc2c(c1)CCCN(c1nc(Cl)nc3ccccc13)C2` [5l, 2-Chloro-4-(N-(7-methoxy-2,3,4,5-tetrahydro-1H-benzo[c]-azepinyl))quinazoline], 5450 to 19600 nM.
Still for that read-out and setting: to `COc1ccc2c(c1)CCCCN2c1nc(C)nc2ccccc12` [5k, 4-(N-(7-Methoxy-2,3,4,5-tetrahydro-1H-benzo[b]azepinyl))-2-methylquinazoline] belongs 18 to 21 nM.
With `COc1ccc2c(c1)N(C)C(=O)CN2c1nc(C)nc2ccccc12` [5g, 2-Methyl-4-(1-methyl-7-methoxy-2-oxo-3,4-dihydroquinox-alin-4-yl)quinazoline], in series [2] (4 mg/kg i.v., Q3D × 6), the “body weight change (%)” value is “+2.28%” and the death was 0/7. For the same compound, the “growth of MCF7 tumor xenografts (tumor volume vs control)” value with MCF7 tumor xenografts is given as “significantly inhibited”. Besides, the concentration for 50% growth inhibition (GI50) in series [1] lay within 17 to 25 nM.
Turning to `COc1ccc2c(c1)OCCN2c1nc(Cl)nc2ccccc12` [5d, 2-Chloro-4-(N-(7-methoxy-3,4-dihydro-2H-benzo[b][1,4]-oxazinyl))quinazoline], the GI50 in series [1] was in the range of 153 to 211 nM.
Turning to `CC(=O)O[C@H]1C(=O)[C@@]2(C)[C@H]([C@H](OC(=O)c3ccccc3)[C@]3(O)C[C@H](OC(=O)[C@H](O)[C@@H](NC(=O)c4ccccc4)c4ccccc4)C(C)=C1C3(C)C)[C@]1(OC(C)=O)CO[C@@H]1C[C@@H]2O` [paclitaxel], the “effect on cellular microtubule network” value with A549 cells [4] is “retained a spindle-shaped microtubule network”.
For the compound `COc1ccc2c(c1)CCCN2c1nc(C)nc2ccccc12` [1b, 2-methyl-4-(6-methoxy-3,4-dihydroquinolin-1(2H)-yl)quinazoline], the death in series [2] (4 mg/kg i.v., Q3D × 6) is 1/6. Besides, the “human liver microsome t1/2” value in series [6] is recorded as 25.2 min.
Turning to `COc1cc2c(c(OC)c1OC)-c1ccc(OC)c(=O)cc1[C@@H](NC(C)=O)CC2` [colchicine, reference compound], the “effect on the cell cycle” value in the series on A549 cells [3] was “arrested at the G2/M phase”. For the same compound, the “effect on cellular microtubule network” value in the series with A549 cells [4] was “microtubule network disappeared”.
